Structures are written as SMILES. A value given as a limit tells only on which side of the number the result lay.

T1 sequence (Q96D31 whole entry): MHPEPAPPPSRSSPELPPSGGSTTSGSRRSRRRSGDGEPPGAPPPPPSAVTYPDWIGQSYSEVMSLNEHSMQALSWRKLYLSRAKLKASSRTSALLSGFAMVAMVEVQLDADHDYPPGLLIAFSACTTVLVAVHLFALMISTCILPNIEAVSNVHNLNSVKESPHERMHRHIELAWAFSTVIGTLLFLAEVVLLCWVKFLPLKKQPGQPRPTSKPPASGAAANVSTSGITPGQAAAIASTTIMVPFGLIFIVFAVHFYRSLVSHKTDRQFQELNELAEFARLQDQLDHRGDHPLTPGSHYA

This assay has as its target T1, CRAC channel (Homo sapiens, UniProt Q96D31).
T1 construct: endogenous in cells; host or cells: HEK293 (ECACC), untransfected
In words: HEK Calcium Influx Assay (FLIPR), inhibition of store-operated Ca2+ entry after thapsigargin store depletion. The format is cell-based. Conditions: 10 μM compound, HEK293 cells, read-out: % inhib. [@ 10 μM] FLIPR. Here is the method:
The effect of compounds of the invention on intracellular [Ca^2+] was tested in the HEK293 cell line (ECACC).
HEK293 cells were cultured in DMEM/F12/Glutamax (Gibco) containing 10% FCS (Gibco), and maintained at 37° C., 5% CO2. Cell were split twice a week [3*10^6 (Mon-Thu) and 1*10^6 (Thu-Mon) cells/50 ml medium in 1-175 ZK culture flasks, respectively]. Twenty four hours pre-experiment, cells were seeded on 96 well plates (Poly-D-Lysine 96 well Black/Clear Plate, BD Biocoat REF 356640) at a density of 40,000 cells/well in DMEM/F12 (Gibco) containing 10% FCS (Gibco), and maintained at 37° C., 5% CO2.
Prior to store-depletion, cell culture medium was removed and cells were loaded with the Calcium-sensitive fluorescent dye comprised within the Calcium-4-assay kit (Molecular Devices) in nominally Ca^2+-free HBS buffer (140 mM NaCl, 4 mM KCl, 0.2 mM MgCl2, 11 mM D-glucose, and 10 mM HEPES, pH 7.4) according to manufacturer's instruction for 60 min at 37° C., 5% CO2.
Passive depletion of intracellular Ca^2+-stores was then triggered by employing the SERCA inhibitor thapsigargin (2 μM final) for 10 min in the dark (RT). To prevent immediate Ca^2+-entry via the activated store-operated channels (SOCs), cells were maintained in Ca^2+-free HBS buffer comprising 100 μM EGTA during store-depletion.
Intracellular changes in [Ca^2+] were subsequently monitored with the FLIPR device (Molecular Devices). In brief, baseline imaging post-store depletion was allowed for 1 min before adjusting the extracellular buffer to 3 mM CaCl2. Increases in intracellular [Ca^2+] due to pre-activated SOC channels were monitored for 15 min until intracellular Ca^2+ levels had declined into a steady-state. Finally, compounds were administered, and Ca^2+ signals were recorded for additional 10 min.
Inhibition of endogenous SOC in HEK293 cells was quantified employing the average Ca^2+ signal measured from 9.5-10 min post-administration. Zero percent inhibition (MAX) was defined as the Ca^2+ signal recorded from wells to which DMSO-only had been added instead of compound. Hundred percent inhibition (MIN) was defined as the signal obtained from wells in which cells haven't been treated with TG prior to Ca^2+ addition and to which DMSO-only had been added instead of compound. For routine IC50 determinations of compounds, 8 concentrations of a serial dilution (1:3.16) were tested, starting off from 10 μM. Reliable IC50's could consequently be determined only, if they were at least sub 2.5-3 μM.
Regarding `Cc1sc(-c2ccccn2)nc1N1CCc2[nH]c(-c3c(F)cccc3F)cc2C1=O` [Example 5, 2-(2,6-Difluoro-phenyl)-5-(5-methyl-2-pyridin-2-yl-thiazol-4-yl)-1,5,6,7-tetrahydro-pyrrolo[3,2-c]pyridin-4-one], the inhibition at 10 µM was in the range of 50 to 70%.

Turning to `Cc1sc(-c2cccnc2)nc1N1CCc2[nH]c(-c3c(F)cccc3Cl)cc2C1` [Example 17, 4-[2-(2-Chloro-6-fluoro-phenyl)-4,5,6,7-tetrahydro-1H-pyrrolo[3,2-c]pyridin-5-yl]-5-methyl-2-pyridin-3-yl-thiazole], the inhibition at 10 µM is above 70%.

On to `Cc1ccc(C#N)cc1N1CCc2[nH]c(-c3c(F)cccc3F)cc2C1` [Example 29, 3-[2-(2,6-Difluoro-phenyl)-4,5,6,7-tetrahydro-1H-pyrrolo[3,2-c]pyridin-5-yl]-4-methyl-benzonitrile], for which the inhibition at 10 µM is 50 to 70%.

As for `Cc1cc(Cl)ncc1N1CCc2[nH]c(-c3c(F)cccc3F)cc2C1=O` [Example 38, 5-(6-Chloro-4-methyl-pyridin-3-yl)-2-(2,6-difluoro-phenyl)-1,5,6,7-tetrahydro-pyrrolo[3,2-c]pyridin-4-one], the inhibition at 10 µM was above 70%.

`COc1cc(C)c(N2CCc3[nH]c(-c4c(F)cccc4F)cc3C2=O)cn1` [Example 39, 2-(2,6-Difluoro-phenyl)-5-(6-methoxy-4-methyl-pyridin-3-yl)-1,5,6,7-tetrahydro-pyrrolo[3,2-c]pyridin-4-one]: the inhibition at 10 µM lay in the range of 50 to 70%.

Consider `COc1cc(C#N)ccc1N1CCc2[nH]c(-c3c(F)cccc3Cl)cc2C1=O` [Example 41, 4-[2-(2-Chloro-6-fluoro-phenyl)-4-oxo-1,5,6,7-tetrahydro-pyrrolo[3,2-c]pyridin-5-yl]-3-methoxy-benzonitrile], for which the inhibition at 10 µM lay in the range of 50 to 70%.

As for `Cc1sc(-c2cccnc2)nc1N1CCc2[nH]c(-c3c(F)cccc3Cl)cc2C1=O` [Example 42, 2-(2-Chloro-6-fluoro-phenyl)-5-(5-methyl-2-pyridin-3-yl-thiazol-4-yl)-1,5,6,7-tetrahydro-pyrrolo[3,2-c]pyridin-4-one], the inhibition at 10 µM was above 70%.

For `Cc1sc(-c2cccnc2)nc1N1CCc2[nH]c(-c3ccc(Cl)nc3)cc2C1=O` [Example 43, 2-(6-Chloro-pyridin-3-yl)-5-(5-methyl-2-pyridin-3-yl-thiazol-4-yl)-1,5,6,7-tetrahydro-pyrrolo[3,2-c]pyridin-4-one], the inhibition at 10 µM lay in the range of 50 to 70%.

For `Cc1cc(Cl)ncc1N1CCc2[nH]c(-c3ccc(F)cc3F)cc2C1=O` [Example 44, 5-(6-Chloro-4-methyl-pyridin-3-yl)-2-(2,4-difluoro-phenyl)-1,5,6,7-tetrahydro-pyrrolo[3,2-c]pyridin-4-one], the inhibition at 10 µM lay in the range of 50 to 70%.

On to `Cc1cc(Cl)ncc1N1CCc2[nH]c(-c3c(F)cccc3Cl)cc2C1=O` [Example 45, 2-(2-Chloro-6-fluoro-phenyl)-5-(6-chloro-4-methyl-pyridin-3-yl)-1,5,6,7-tetrahydro-pyrrolo[3,2-c]pyridin-4-one], for which the inhibition at 10 µM was above 70%.

For `O=C1c2cc(-c3c(F)cccc3F)[nH]c2CCN1c1c(F)cccc1F` [Example 46, 2,5-Bis(2,6-difluoro-phenyl)-1,5,6,7-tetrahydro-pyrrolo[3,2-c]pyridin-4-one], the inhibition at 10 µM was 50 to 70%.

With `Cc1sccc1N1CCc2[nH]c(-c3c(F)cccc3F)cc2C1=O` [Example 47, 2-(2,6-Difluoro-phenyl)-5-(2-methyl-thiophen-3-yl)-1,5,6,7-tetrahydro-pyrrolo[3,2-c]pyridin-4-one], the inhibition at 10 µM was above 70%.

On to `Cc1sc(C2CC2)nc1N1CCc2[nH]c(-c3c(F)cccc3F)cc2C1=O` [Example 48, 5-(2-Cyclopropyl-5-methyl-thiazol-4-yl)-2-(2,6-difluoro-phenyl)-1,5,6,7-tetrahydro-pyrrolo[3,2-c]pyridin-4-one], for which the inhibition at 10 µM was above 70%.

On to `O=C1c2cc(-c3c(F)cccc3Cl)[nH]c2CCN1c1c(F)cccc1F` [Example 49, 2-(2-Chloro-6-fluoro-phenyl)-5-(2,6-difluoro-phenyl)-1,5,6,7-tetrahydro-pyrrolo[3,2-c]pyridin-4-one], for which the inhibition at 10 µM was above 70%.

On to `Cc1ccc(Cl)cc1N1CCc2[nH]c(-c3c(F)cccc3Cl)cc2C1=O` [Example 50, 2-(2-Chloro-6-fluoro-phenyl)-5-(5-chloro-2-methyl-phenyl)-1,5,6,7-tetrahydro-pyrrolo[3,2-c]pyridin-4-one], for which the inhibition at 10 µM was in the range of 50 to 70%.

Regarding `Cc1sccc1N1CCc2[nH]c(-c3c(F)cccc3Cl)cc2C1=O` [Example 51, 2-(2-Chloro-6-fluoro-phenyl)-5-(2-methyl-thiophen-3-yl)-1,5,6,7-tetrahydro-pyrrolo[3,2-c]pyridin-4-one], the inhibition at 10 µM was above 70%.

For `Cc1sc(C2CC2)nc1N1CCc2[nH]c(-c3c(F)cccc3Cl)cc2C1=O` [Example 52, 2-(2-Chloro-6-fluoro-phenyl)-5-(2-cyclopropyl-5-methyl-thiazol-4-yl)-1,5,6,7-tetrahydro-pyrrolo[3,2-c]pyridin-4-one], the inhibition at 10 µM is above 70%.

Regarding `Cc1sc(-c2ncco2)nc1N1CCc2[nH]c(-c3c(F)cccc3Cl)cc2C1=O` [Example 53, 2-(2-Chloro-6-fluoro-phenyl)-5-(5-methyl-2-oxazol-2-yl-thiazol-4-yl)-1,5,6,7-tetrahydro-pyrrolo[3,2-c]pyridin-4-one], the inhibition at 10 µM is above 70%.

Regarding `Cc1sc(-c2ncco2)nc1N1CCc2[nH]c(-c3c(F)cccc3F)cc2C1=O` [Example 54, 2-(2,6-Difluoro-phenyl)-5-(5-methyl-2-oxazol-2-yl-thiazol-4-yl)-1,5,6,7-tetrahydro-pyrrolo[3,2-c]pyridin-4-one], the inhibition at 10 µM is above 70%.

With `Cc1sccc1N1CCc2[nH]c(-c3c(F)cccc3F)cc2C1` [Example 55, 2-(2,6-Difluoro-phenyl)-5-(2-methyl-thiophen-3-yl)-4,5,6,7-tetrahydro-1H-pyrrolo[3,2-c]pyridine], the inhibition at 10 µM is above 70%.

For `Cc1sc(C2CC2)nc1N1CCc2[nH]c(-c3c(F)cccc3F)cc2C1` [Example 56, 2-Cyclopropyl-4-[2-(2,6-difluoro-phenyl)-4,5,6,7-tetrahydro-1H-pyrrolo[3,2-c]pyridin-5-yl]-5-methyl-thiazole], the inhibition at 10 µM was above 70%.

Regarding `Cc1sc(-c2ncco2)nc1N1CCc2[nH]c(-c3c(F)cccc3F)cc2C1` [Example 57, 2-[4-[2-(2,6-Difluoro-phenyl)-4,5,6,7-tetrahydro-1H-pyrrolo[3,2-c]pyridin-5-yl]-5-methyl-thiazol-2-yl]-oxazole], the inhibition at 10 µM was above 70%.

Turning to `Cc1cc(N2CCc3[nH]c(-c4c(F)cccc4F)cc3C2)n(C)n1` [Example 58, 2-(2,6-Difluoro-phenyl)-5-(2,5-dimethyl-2H-pyrazol-3-yl)-4,5,6,7-tetrahydro-1H-pyrrolo[3,2-c]pyridine], the inhibition at 10 µM is above 70%.

`Cc1sccc1N1CCc2[nH]c(-c3c(F)cccc3Cl)cc2C1` [Example 60, 2-(2-Chloro-6-fluoro-phenyl)-5-(2-methyl-thiophen-3-yl)-4,5,6,7-tetrahydro-1H-pyrrolo[3,2-c]pyridine]: the inhibition at 10 µM was above 70%.

As for `Cc1sc(C2CC2)nc1N1CCc2[nH]c(-c3c(F)cccc3Cl)cc2C1` [Example 61, 4-[2-(2-Chloro-6-fluoro-phenyl)-4,5,6,7-tetrahydro-1H-pyrrolo[3,2-c]pyridin-5-yl]-2-cyclopropyl-5-methyl-thiazole], the inhibition at 10 µM was above 70%.

These data come from patent US20160151337A1, “ANNELATED PYRROLES AND THEIR USE AS CRAC INHIBITORS” (Grünenthal GmbH, priority 2013, published 2016).
